# Laboratory results published in publication PMC11496873, “Synthesis, characterization, and in vitro–in ovo toxicological screening of silibinin fatty acids conjugates as prodrugs with potential biomedical applications” (Biomolecules and Biomedicine, 2024).
# Where two headings read alike, the source gives them in different places.
# Experiments:
# HaCaT cells [1] = tested on: HaCaT cells; parameters: method as in earlier work; details: 24 h, cited from earlier work
# [2] = tested on: LX-2 human hepatic stellate cells; parameters: method as in PMID 27746612; details: LX-2 cells, 10, 50 and 100 µM; cited from earlier work
# H9c2(2-1) cells = experiment: Cell migration (scratch) assay; assay type: cell-based; details: 24 h, normalized to control
# Method: (§1) To investigate the effect of SIL, SIL-O, and SIL-L treatments on the migration of H9c2(2-1), HepaRG, and HaCaT cells, the scratch assay was performed as follows: (A) the cells (10^5 cells/mL/well) were seeded in Corning Costar 24-well plates and left to attach and reach a proper confluence, (B) a scratch was automatically made in every well using the AutoScratch™ Wound Making Tool (BioTek Instruments Inc., Winooski, VT, USA), (C) the cells were exposed to SIL and its FAs derivatives 1, 10, and 25 µM for 24 h, and (D) the wound area was imaged at two time points (0 and 24 h) using Cytation 1 Imaging Reader (BioTek® Instruments Inc., Winooski, VT, USA). The Gen5 ™ Microplate Data Collection and Analysis Software (BioTek® Instruments Inc., Winooski, VT, USA) was used to measure the wound widths in each image. The migration rates (%) for the applied treatments were determined using the formula presented below and normalized to control.
# (§2) Migration rate (%) ═ [drawing 2] ×100, where:
# (§3) At0 ═ wound width at 0 h,
# (§4) At24 ═ wound width at 24 h.
# HepaRG cells = experiment: Cell migration (scratch) assay; assay type: cell-based; details: 24 h, normalized to control
# Method: as §1, §2, §3, §4
# MTT cell viability assay = assay type: cell-based
# Method: The study was performed using three cell lines – H9c2(2-1) cardiomyoblasts (CRL-1446™), HepaRG hepatocytes (HPRGC10), and HaCaT keratinocytes (300493) – delivered as frozen vials by ATCC (Lomianki, Poland), ThermoFisher Scientific (Waltham, MA, USA), and CLS Cell Lines Service GmbH (Eppelheim, Germany), respectively. H9c2(2-1) and HaCaT cells were grown in DMEM, while HepaRG cells were cultured in William’s E Medium containing insulin from bovine pancreas (at a final concentration of 4 µg/mL) and hydrocortisone 21-hemisuccinate sodium salt (at a final concentration of 50 µM). Both media were supplemented with 10% FCS and 1% antibiotics (penicillin 100 U/mL and streptomycin 100 µg/mL). The cells were cultured at 37 ^∘C and 5% CO2, in a humidified incubator for cell culture, presenting normal proliferation during the experiments.
# The impact of all tested compounds (1, 10, 25, 50, and 100 µM) on the viability of H9c2(2-1), HepaRG, and HaCaT cells was assessed using the MTT method which was performed according to a previous publication. Briefly, the cells cultured in 96-well plates were exposed to SIL, SIL-O, and SIL-L for 24 h. At the end of the treatment, the culture medium containing SIL, SIL-O, and SIL-L was removed and replaced with 100 µL/well of the specific culture media for the used cell lines (DMEM for H9c2(2-1) cells and HaCaT; William’s E Medium for HepaRG). Then, 10 µL of MTT reagent was added in every well, followed by 3 h of incubation of the plates at 37 ^∘C. The absorbance measurements were performed at 570 and 630 nm on Cytation 5 Microplate Reader (BioTek Instruments Inc., Winooski, VT, USA) following the addition of the MTT solubilization solution (a volume of 100 µL/well), and the plates’ incubation at room temperature for 30 min, protected from light.
# [3] = tested on: HK-2 human renal tubular endothelial cells; parameters: method as in PMID 32103902; details: HK-2 cells, 60 and 90 µM, 48 h; cited from earlier work
# HaCaT cells [4] = experiment: Cell migration (scratch) assay; assay type: cell-based, human; details: 24 h
# Method: as §1, §2, §3, §4
# [5] = tested on: Madin–Darby Canine Kidney (MDCK) cells; parameters: method as in PMID 20036447; details: 800 µM, 2 h; cited from earlier work
# [6] = parameters: method as in PMID 19601873; details: buffers with pH 1.0–7.8 and physiological media (plasma, intestinal and liver fluids); cited from earlier work
# HaCaT keratinocytes = experiment: Hoechst 33342 nuclear staining, apoptotic index; assay type: cell-based, human; details: 100 µM, 24 h
# Method: The influence of SIL, SIL-O, and SIL-L (100 µM) on nuclear morphology was evaluated by imaging the cells’ nuclei stained with Hoechst 33342. Shortly, at the end of the treatment, the H9c2(2-1), HepaRG, and HaCaT cells cultured in 12-well plates were treated with staining solution (500 µL/well, dilution of 1:2000 in PBS) for 10 min at room temperature, protected from light and washed with PBS before imaging which was performed on Cytation 1 Imaging Reader (BioTek Instruments Inc., Winooski, VT, USA). Image processing was conducted using the Gen5™ Microplate Data Collection and Analysis Software (BioTek Instruments Inc., Winooski, VT, USA). Apoptotic index (AI) was calculated by applying the formula previously reported: […]
# H9c2 cells = tested on: H9c2 cells; parameters: method as in PMID 22818713; details: concentrations up to 200 µM, 48 h; cited from earlier work
# [7] = tested on: chorioallantoic membrane (CAM); experiment: In ovo irritation test (HET-CAM); assay type: in vivo, chicken; details: SIL-O and SIL-L at 100 µM
# Method: The potential irritant effect of SIL-O and SIL-L (100 µM) was assessed in ovo, by applying the Hen’s Egg Test – Chorioallantoic Membrane (HET-CAM) test. The applied procedure was also described by Breban-Schwarzkopf et al.. Briefly, chicken-fertilized eggs were cleaned and disinfected with ethanol 70% and placed in an incubator at 37 ^∘C and 60% humidity. On the fourth day of incubation, a cut was performed on the eggs’ tips to allow the extraction of 6–7 mL albumen, while on the fifth day, a window was cut on the upper side of each egg and covered with adhesive tape. The experiment was performed on the tenth day of incubation, by applying the samples directly on the chorioallantoic membrane (CAM) and analyzing the occurrence of vascular impairments, such as hemorrhage, lysis, and coagulation for 5 min. Representative pictures were taken before the start of the experiment (T0) and at its end (T5) using the Discovery 8 SteREO Microscope equipped with an Axio CAM 105 color camera and processed in ZEN core version 3.8 software (Zeiss, Göttingen, Germany). The irritant potential was determined by calculating the irritation score (IS) for each sample and interpreted as presented in a previous publication.
smiles,measurement,setting,value
CCCCCCCC/C=C\CCCCCCCC(=O)Oc1c(-c2ccc(O)c(O)c2)oc2cc(O)cc(O)c2c1=O [quercetin-3-oleate],enhancement in wound healing compared to control,HaCaT cells [1]; 0.1 µM (first concentration listed),47%
same,enhancement in wound healing compared to control,HaCaT cells [1]; 0.1 µM (second concentration listed),35%
same,enhancement in wound healing compared to control,HaCaT cells [1]; 1 µM,51%
"COc1cc(C2Oc3cc([C@H]4Oc5cc(O)cc(O)c5C(=O)[C@@H]4O)ccc3OC2CO)ccc1O (some centres unmarked) [SIL, Silibinin]",effect on migratory properties,[2],inhibitory effect
same,migration rate,H9c2(2-1) cells; 1 µM,105.34%
same,migration rate,H9c2(2-1) cells; 25 µM,119.8%
same,migration rate,HepaRG cells; 10 µM,around 50%
same,migration rate,HepaRG cells; 25 µM,around 50%
same,viability at 24 h,"MTT cell viability assay; human, HepaRG hepatocytes, higher concentrations (reduction up to), normalized to control",~80%
same,"viability at 24 h, 1 µM","MTT cell viability assay; rat, H9c2(2-1) cardiomyoblasts, 1 µM, normalized to control",128%
same,"viability at 24 h, 100 µM","MTT cell viability assay; rat, H9c2(2-1) cardiomyoblasts, all tested concentrations (1, 10, 25, 50, 100 µM), compared to control",> 100%
same,effect on viability,[3],significantly decreased the viability
same,effect on migration,"HaCaT cells [4]; 25 µM, compared to control",significant inhibition
same,effect on migration,HaCaT cells [4]; 1 and 10 µM,"neither SIL, nor SIL-O or SIL-L affected"
same,cytotoxicity,[5],no cytotoxic effect
same,stability,[6],unstable
same,apoptotic index (AI),HaCaT keratinocytes,no significant changes
same,cytotoxicity,H9c2 cells,not cytotoxic
"CCCCCCCCCCCCOS(=O)(=O)[O-].[Na+] [SDS 1%, sodium dodecyl sulfate]",IS value (irritation score),[7]; 5 min,19.74
same,Observation (irritant classification),[7]; based on IS value,Strong irritant
